Consider four molecules from publication PMC6017046, “Synergistic Promotion on Tyrosinase Inhibition by Antioxidants” (Molecules : A Journal of Synthetic Chemistry and Natural …, 2018).

The target in test [1] is T1, Mushroom tyrosinase (Agaricus bisporus, UniProt C7FF04). The following applies: ref 1 (GLA), ref 25 (OXYR), ref 26 (RES); cited from earlier work.
For test [2], the target named is T1, Mushroom tyrosinase. Put plainly: Mushroom tyrosinase inhibitory assay, L-tyrosine as substrate. It is filed as biochemical. How it is done: Inhibitory activity against tyrosinase is examined through an improved spectrophotometric method using L-DOPA and L-tyrosine as substrates. […] The reaction mixture is incubated at 37 °C for 15 min. Mushroom tyrosinase (40 µL, 200 units/mL) is added to the reaction mixture and incubated at 30 °C for 20 min.
(§1) Dopachrome formation is monitored at 475 nm with a UV-visible spectrophotometer (MAPADA UV-6100PCS). The rate of the inhibition of tyrosinase activity (I%) is determined according to the following formula: I%=(A2−A1)−(B2−B1)/(A2−A1)×100 where A1 and A2 are the absorbance values of the blank at 475 nm at 0 min and 20 min, respectively, and B1 and B2 is the absorbance levels of the test sample at 475 nm at 0 min and 20 min, respectively.
The 50% inhibition concentration (IC50) value is determined with SPSS 17.0 statistical software (International Business Machines Corporatio, Armonk, NY, USA). All experiments are performed at least in triplicate. Data are analyzed by unpaired Student’s t-test, followed by Dunnett’s multiple comparison test (SPSS version 17.0). P values lower than 0.05 are considered significant. The interactions are calculated using combination index (CI) according to [22]: CI=IC50amix/IC50a+IC50bmix/IC50b where IC50a and IC50b are obtained from pure compounds, and IC50amix is the concentration of individual compound in the mixture that cause 50% inhibition. Obtained CI values equal, smaller, or greater than 1 indicate an additive, synergistic, or antagonistic effect, respectively.

Test [3] in a line: DPPH free radical-scavenging capacity assay. The conditions noted are these: 0.1 mmol/L DPPH, 30 min, absorbance 517 nm; read-out: IC50 of antioxidant solutions (DPPH scavenging / DPPH clearance rate). The protocol: The DPPH free radical-scavenging capacity of the samples are determined according to the method of a previous study with slight modifications. Samples (100l) of various concentrations are added to 100 µL of 0.1 mmol/L DPPH solution in methanol at room temperature. After 30 min, the absorbance is measured at 517 nm with a UV-visible spectrophotometer (MAPADA UV-6100PCS, Shanghai, China). The percentage of free radical (DPPH) scavenging activity (I%) is calculated according to following formula: I%=ODck−ODsample/ODck×100 where ODck is the absorbance of the control reaction, which involves all the reagents except the test compound, and ODsample is the absorbance of the test compound.
(Loss of DPPH colour is used to gauge radical scavenging.)

Test [4] deals with T1, Mushroom tyrosinase. Put plainly: Mushroom tyrosinase inhibitory assay, L-DOPA as substrate. It is filed as biochemical. The following applies: read-out: IC50, tyrosinase activity, single compounds. The protocol:
The reaction mixture is incubated at 37 °C for 15 min. Subsequently, 40 µL of 100 units/mL mushroom tyrosinase is added to the reaction mixtures and incubated at 37 °C for 20 min. […] The reaction mixture is incubated at 37 °C for 15 min. Subsequently, 40 µL of 5 mM L-DOPA is added to the reaction mixture and incubated at 30 °C for 20 min.
as §1
The 50% inhibition concentration (IC50) value is determined with SPSS 17.0 statistical software (International Business Machines Corporatio, Armonk, NY, USA). All experiments are performed at least in triplicate. Data are analyzed by unpaired Student’s t-test, followed by Dunnett’s multiple comparison test (SPSS version 17.0). P values lower than 0.05 are considered significant. […]

Test [5] has as its target T2, tyrosinase activity of PIG1 cells (Homo sapiens, UniProt P14679).
T2 construct: The intracellular tyrosinase activity of the PIG1 cells; host or cells: PIG1 immortalized human epidermal melanocytes
T2 sequence (P14679 19-529): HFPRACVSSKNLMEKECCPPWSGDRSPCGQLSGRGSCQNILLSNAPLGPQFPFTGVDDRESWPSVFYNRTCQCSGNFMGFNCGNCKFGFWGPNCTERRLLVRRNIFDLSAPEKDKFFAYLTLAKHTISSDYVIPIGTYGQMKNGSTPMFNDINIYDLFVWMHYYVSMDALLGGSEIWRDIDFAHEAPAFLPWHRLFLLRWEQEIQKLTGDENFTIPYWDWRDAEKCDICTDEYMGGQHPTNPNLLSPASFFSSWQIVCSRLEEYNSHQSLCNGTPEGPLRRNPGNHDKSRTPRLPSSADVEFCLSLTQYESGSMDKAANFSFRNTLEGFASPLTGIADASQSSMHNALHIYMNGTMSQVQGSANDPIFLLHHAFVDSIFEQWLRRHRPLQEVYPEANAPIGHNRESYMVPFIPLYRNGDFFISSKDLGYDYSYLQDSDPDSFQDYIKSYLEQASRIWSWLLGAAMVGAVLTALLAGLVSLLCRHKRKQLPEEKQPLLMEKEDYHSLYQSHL
Briefly: Intracellular tyrosinase activity assay in UVB-irradiated PIG1 cells (L-DOPA oxidation). The class given is cell-based. The conditions noted are these: 300 mJ/cm^2 UVB, 24 h, L-DOPA substrate, read-out: IC50, inhibition against tyrosinase activities.
Description: Immortalized human epidermal melanocyte cells from cell line PIG1 are obtained from Shanghai Guandao Bio-engineering Ltd. Co. (Shanghai, China). PIG1 cells are cultured at 37 °C with 5% CO2 in Medium 254 (#M-254-500, Thermo Fisher Scientific, New York, NY, USA) supplemented with human melanocyte growth supplement-2 (Thermo Fisher Scientific, New York, NY, USA) and 5% (v/v) fetal bovine serum (Thermo Fisher Scientific, New York, NY, USA).
The UVB source employed in this study is a Sigma SH4B light therapy device (Shanghai SIGMA High-tech Co., Ltd., Shanghai, China). […] UVB irradiation treatment is conducted when cells reached approximately 70% confluence according to the methods of Zeng et al. [19]. Before UVB irradiation, the supernatant is removed and replaced with PBS. […] The control group receives the same treatment as the UVB group but is not administered any drug.
PIG1 cells (1 × 10^4 cells/well) are seeded in 96-well plates and incubated for 24 h in CO2 until 70–80% confluence is reached. Subsequently, the complete medium is replaced with 100 µL of PBS, and the cells are exposed to 300 mJ/cm^2 UVB irradiation. […] The intracellular tyrosinase activity of the PIG1 cells are estimated by measuring the L-DOPA oxidation capacity according to the method of Rong et al. [21]. […] The products of the reaction are measured by reading the absorbance at 475 nm.

T1 sequence (C7FF04 1-392): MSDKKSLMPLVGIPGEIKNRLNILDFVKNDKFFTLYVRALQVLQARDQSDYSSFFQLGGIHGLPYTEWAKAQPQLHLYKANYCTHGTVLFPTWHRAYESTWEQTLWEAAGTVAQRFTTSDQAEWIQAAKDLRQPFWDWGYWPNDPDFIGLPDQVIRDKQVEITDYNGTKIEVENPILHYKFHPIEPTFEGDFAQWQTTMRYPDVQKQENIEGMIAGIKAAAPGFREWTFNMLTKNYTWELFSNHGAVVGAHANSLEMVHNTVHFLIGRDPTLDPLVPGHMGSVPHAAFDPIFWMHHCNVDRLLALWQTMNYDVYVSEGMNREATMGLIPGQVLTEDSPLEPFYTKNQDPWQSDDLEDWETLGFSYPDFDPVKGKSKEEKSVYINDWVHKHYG

For the molecule `CC1(C)C=Cc2c(ccc3c2OC[C@@H](c2ccc(O)cc2O)C3)O1` [GLA, Glabridin], on Mushroom tyrosinase [1], the “mode of tyrosinase inhibition” value was “non-competitive”. Also, the IC50 at Mushroom tyrosinase [2] is 1.5 ± 0.03 µM; in test [3], 458 ± 0.037 µM.

With `Oc1cc(O)cc(/C=C/c2ccc(O)cc2O)c1` [OXYR, Oxyresveratrol], the “mode of tyrosinase inhibition” value at Mushroom tyrosinase [1] is listed as “non-competitive”. In addition, the results for the IC50 (at Mushroom tyrosinase [2]; in test [3]) were 2.5 ± 0.06 µM and 76 ± 0.07 µM, respectively.

Regarding `CC(c1ccccc1)c1ccc(O)cc1O` (centres unmarked) [PR, Phenylethylresorcinol], the “mode of tyrosinase inhibition” value on Mushroom tyrosinase [1] was “non-competitive”. In addition, the IC50 was found to be 35.5 ± 0.06 µM on Mushroom tyrosinase [4]; 0.28 ± 0.03 µM on Mushroom tyrosinase [2] (L-Tyrosine as substrate, read-out: IC50, tyrosinase activity, single compounds); 119 ± 0.07 µM in test [3].

Take `Oc1ccc(/C=C/c2cc(O)cc(O)c2)cc1` [RES, Resveratrol]: on Mushroom tyrosinase [1], the “mode of tyrosinase inhibition” value was “Kcat or suicide inhibitor”. Moreover, the results for the IC50 (in test [5]; at Mushroom tyrosinase [2]; in test [3]) were more than 100 µM, 23 ± 0.05 µM and 142 ± 0.03 µM, respectively.
